Assay results from patent publication US10285984B2, “Methods and compositions for improving gut microbiota population” (SHANGHAI JIAO TONG UNIVERSITY, priority 2012, dated 2019).

Assays:
Format in all cases: in vivo, Wistar rats
[1] = test system: gut microbiota; assay: Gut microbiota structure in rat feces by 454 pyrosequencing and multivariate statistics (PCoA, MANOVA, RDA, Shannon-Wiener index)
From the text: (§1) These examples use Wistar rats (8 weeks old, male) as testing subjects and berberine as a representative compound. 40 Wistar rats were acclimatized for two weeks and were subsequently randomly divided into four groups: normal diet group (NCD), normal diet plus berberine treatment (NCD+BBR), high fat diet (HFD), and high fat diet plus berberine treatment (HFD+BBR). Each group continued for another 18 weeks. During these 18 weeks, the NCD+BBR group received intragastric administration of berberine at stated levels. Feces samples from each animal were collected at various time points. 454 pyrosequencing was performed to analyze gut microbiota structure. Gas chromatography was used to assay the short-chain fatty acid level of the feces. In addition, weight, food intake, insulin sensitivity, systemic inflammation levels were monitored and measured during the 18-week period.
The gut microbiota populations in rats from all four experimental groups were analyzed by 454 pyrosequencing and multivariate statistical analyses. […] Diet also exerted statistically significant influence on gut microbiota population.
268 berberine-related OTU were identified by redundancy analysis (RDA) and the detailed results are shown in FIG. 2, TABLE 1, and TABLE 2. 93 OTU (SEQ_ID_NO 1-93) (TABLE 1) are enriched by berberine, while 175 OTU (SEQ_ID_NO 94-268) (TABLE 2) were suppressed or eliminated.
The taxonomy of these 268 OTU was analyzed using RDP classifier with representative sequence of the OTU. […] Among them, Blautia, Allobaculum, Prevotella, Bacteroides, and Butyricimonas are relatively abundant and are capable of producing short-chain fatty acid.

[2] = test system: gut short-chain fatty acid; assay: Short-chain fatty acid level in rat feces by gas chromatography; conditions: oral 100 mg/kg body weight, FIG. 3
From the text: as §1, with “period. The levels of short-chain fatty acid (including acetic acid, propionic acid, butyric acid, valeric acid, isobutyric acid, isovaleric acid, etc.) in rat feces were assayed by gas chromatography. […] Therefore, berberine is capable of increasing gut short-chain fatty acid level in rats fed normal diet or high fat diet.” for “period.”

[3] = Obesity phenotype of rats fed normal or high fat diet: body weight, adiposity index, food intake, liver and pancreas
From the text: as §1, with “period. The body weight of all four groups of rats were monitored during the duration of the experiments and analyzed. […] At the end of experiment, animals were euthanized. Fasting body weight, epididymal fat weight, and perirenal fat weight were measured.” for “period.”

[4] = Systemic inflammation level in rats: serum LBP, MCP-1, leptin, adiponectin
From the text: as §1
In order to evaluate the systemic inflammation levels of all four experimental groups of rats, the serum levels of lipopolysaccharide (LPS)-binding protein (LBP), monocyte chemoattractant protein-1 (MCP-1), leptin, and adiponectin were measured, and results are shown in FIG. 6.
MCP-1 is a pro-inflammatory cytokine that functions in chemotaxis and activation of monocytes/macrophages. Occurrence and development of many inflammation-related diseases are closely related to MCP-1, including atherosclerosis, obesity, type 2 diabetes, arthritis, sepsis, and chronic bacterial infection.
Leptin is a hormone secreted by adipose tissue, and broadly participates in lipid, glucose, and energy metabolism.
The adiponectin levels in all four groups were analyzed. […] Therefore, berberine improves gut microbiota population, reduces LPB, MCP-1, and lpetin level, and increases adiponectin secretion. TABLE 1 16S rRNA gene V3 region sequence of those bacteria enriched by berberine.

[5] = Insulin sensitivity in rats: FBG, FINS, HOMA-IR, oral glucose tolerance test, intraperitoneal insulin tolerance test
From the text: as §1, with “period. The fasting blood glucose (FBG) and fasting insulin in serum (FINS) were measured for all four experimental groups of rats. […] In order to further examine insulin sensitivity, oral glucose tolerance test and intraperitoneal injection of insulin tolerance test were conducted, and the results are shown in FIG. 5D, and 5E, respectively.” for “period.”

For `COc1ccc2cc3[n+](cc2c1OC)CCc1cc2c(cc1-3)OCO2` [berberine], the “number of berberine-related OTU identified (RDA)” value ([1]; FIG. 2) was 268 OTU, the “share of overall changes in the gut microbiota population accounted for (PCoA, unweighted Unifrac distance)” value ([1]; NCD and HFD rats, FIG. 1A) was 12.6% and the “diversity of gut microbiota population (Shannon-Wiener index)” value ([1]; P<0.05, FIG. 1C) was “reduces diversity of gut microbiota population at a statistically significant level”. For the same compound, the “number of OTU enriched (RDA)” value ([1]; SEQ_ID_NO 1-93, TABLE 1) was 93 OTU, the “number of OTU suppressed or eliminated (RDA)” value ([1]; SEQ_ID_NO 94-268, TABLE 2) was 175 OTU and the “effect on gut microbiota structure (PCoA)” value ([1]; normal diet group and high fat diet group) was “altered gut microbiota structure in both the normal diet group and high fat diet group at a statistically significant level”. For the same compound, the “effect on levels of acetic acid and propionic acid in feces” value [2] was “especially pronounced”, the “level of gut short-chain fatty acid in feces” value ([2]; rats fed normal diet or high fat diet) was “may increase the level of gut short-chain fatty acid” and the “body weight of HFD+BBR group versus normal diet group” value ([3]; 100 mg/kg, entire experiment, P>0.05) was “no statistically significant difference”. For the same compound, the “effect on liver and pancreas / side effect of long term use” value ([3]; 18 weeks) was “no obvious side effect”, the “adiposity index ([epididymal fat weight+perirenal fat]/fasting weight×100)” value ([3]; 18 weeks, HFD, FIG. 4B) was “significantly reduces adiposity index” and the “body weight of rats fed a normal diet” value ([3]; NCD+BBR, FIG. 4) was “influences, to a certain degree”. For the same compound, the body weight growth ([3]; intragastric 100 mg/kg, 18 weeks, especially rats fed high fat diet, FIG. 4A) was “effectively limits rat body weight growth”, the “food intake (calorie intake)” value ([3]; oral 100 mg/kg body weight, especially rats fed a high fat diet, FIG. 4C) was “significant inhibitory effect on rat food intake” and the “serum lipopolysaccharide (LPS)-binding protein (LBP)” value ([4]; 100 mg/kg, HFD, P<0.05, FIG. 6A) was “significantly abrogated the increase of serum LBP”. For the same compound, the “serum MCP-1 level” value ([4]; HFD rats, FIG. 6B) was “significantly reduced”, the “serum MCP-1 level versus NCD group” value ([4]; HFD+BBR versus NCD) was “even lower than that of NCD group” and the serum leptin level ([4]; especially rats fed a HFD, P<0.05, FIG. 6C) was “significantly reduced the serum leptin level”. The “adiponectin level normalized against body fat weight” value ([4]; rats fed a HFD, P<0.01, FIG. 6D) was “significantly increased adiponectin level”, the “oral glucose tolerance test” value ([5]; 100 mg/kg body weight, 18 weeks HFD, FIG. 5D) was “significantly prevented the loss of glucose tolerance” and the “intraperitoneal injection of insulin tolerance test” value ([5]; 100 mg/kg body weight, 18 weeks HFD, FIG. 5E) was “significantly prevented the loss of glucose tolerance and insulin tolerance”. The “fasting insulin in serum (FINS)” value ([5]; 100 mg/kg body weight, HFD+BBR, FIG. 5B) was “significantly reduced”, the “HOMA insulin resistance index” value ([5]; 100 mg/kg body weight, HFD, P<0.05, FIG. 5C) was “prevented the formation of insulin resistance” and the “fasting blood glucose (FBG) reduction” value ([5]; HFD rats, P<0.05, FIG. 5A) was “significant”. For the same compound, the “fasting blood glucose (FBG)” value ([5]; NCD and HFD rats, FIG. 5A) was “effectively reduced FBG”.
